Assays:
[1] = tested on: crabgrass; assay: Test B pre/postemergence crabgrass; assay type: in vivo, Digitaria sanguinalis
How it was run: (§1)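 Test chemicals in a non-phytotoxic solvent mixture with surfactant were sprayed preemergence onto planted seeds and postemergence onto plants 2 to 18 cm tall (1- to 4-leaf stage). After twelve to sixteen days in a greenhouse, injury was visually rated against untreated controls from 0 (no effect) to 10 (complete control).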

[2] = tested on: corn; assay: Test B pre/postemergence corn; assay type: in vivo, Zea mays
How it was run: as §1

[3] = tested on: cocklebur; assay: Test B pre/postemergence cocklebur; assay type: in vivo, Xanthium strumarium
How it was run: as §1

[4] = tested on: surinam grass; assay: Test B pre/postemergence surinam grass; assay type: in vivo, Brachiaria decumbens
How it was run: as §1

[5] = Postemergence, Rate 125 g/ha, scale 0 to 10, 0 is no effect, 10 is complete control
[6] = Preemergence, Rate 62 g/ha, scale of 0 to 10 where 0 is no effect and 10 is complete control
[7] = Preemergence, Rate 250 g/ha, scale of 0 to 10 where 0 is no effect and 10 is complete control
[8] = Preemergence, Rate 500 g/ha, scale of 0 to 10 where 0 is no effect and 10 is complete control
[9] = Rate 62 g/ha, Postemergence, scale 0 to 10 (0 no effect, 10 complete control)
[10] = Rate 500 g/ha, Postemergence, scale 0 to 10, 0 no effect, 10 complete control
[11] = Rate 250 g/ha, Postemergence, scale of 0 to 10 where 0 is no effect and 10 is complete control
[12] = Rate 62 g/ha, Postemergence, scale of 0 to 10 where 0 is no effect and 10 is complete control
[13] = Rate 125 g/ha, Postemergence, scale 0 to 10
[14] = Rate 125 g/ha, Preemergence, scale of 0 to 10 where 0 is no effect and 10 is complete control
[15] = Postemergence, Rate 62 g/ha, scale 0 to 10, 0 is no effect, 10 is complete control
[16] = Postemergence, Rate 250 g/ha, scale 0 to 10, 0 no effect, 10 complete control
[17] = Preemergence, Rate 62 g/ha, scale 0 to 10, 0 is no effect, 10 is complete control
[18] = Preemergence, Rate 125 g/ha, scale 0 to 10 (0 no effect, 10 complete control)
[19] = Preemergence, Rate 500 g/ha, scale 0 (no effect) to 10 (complete control)
[20] = Rate 125 g/ha, Postemergence, scale 0 to 10, 0 no effect, 10 complete control
[21] = Rate 500 g/ha, Postemergence, 0 to 10 scale (0 no effect, 10 complete control)
[22] = Rate 125 g/ha, Postemergence, scale of 0 to 10 where 0 is no effect and 10 is complete control

Cc1ccccc1-n1c(=O)on(C(=O)N(c2ccc(Cl)cc2)C(C)C2CC2)c1=O (stereo not shown) [Compound 330]
Plant response rating, Crabgrass [1, 5]: 0
Crabgrass plant response rating [1, 6]: 0
Crabgrass plant response rating (0 to 10 scale) ([1]; Preemergence, Rate 125 g/ha): 0
Crabgrass plant response rating [1, 7]: 0
Crabgrass plant response rating [1, 8]: 0
Crabgrass plant response rating [1, 9]: 0
Plant response rating, Crabgrass [1, 10]: 0
Plant response rating, Corn [2, 5]: 0
Corn plant response rating [2, 6]: 0
Corn plant response rating (0 to 10 scale) ([2]; Preemergence, Rate 125 g/ha): 0
Corn plant response rating [2, 7]: 0
Corn plant response rating [2, 8]: 0
Corn plant response rating [2, 9]: 0
Plant response rating, Corn [2, 10]: 0
Plant response rating, Cocklebur [3, 5]: 0
Cocklebur plant response rating [3, 6]: 0
Cocklebur plant response rating (0 to 10 scale) ([3]; Preemergence, Rate 125 g/ha): 0
Cocklebur plant response rating [3, 7]: 0
Cocklebur plant response rating [3, 8]: 0
Cocklebur plant response rating [3, 9]: 0
Plant response rating, Cocklebur [3, 10]: 0
Plant response rating, B. signalgrass [4, 5]: 0
B. signalgrass plant response rating [4, 6]: 0
B. signalgrass plant response rating (0 to 10 scale, 0 is no effect, 10 is complete control) ([4]; Preemergence, Rate 125 g/ha): 0
B. signalgrass plant response rating [4, 7]: 0
B. signalgrass plant response rating [4, 8]: 0
B. signalgrass plant response rating [4, 9]: 0
Plant response rating, B. signalgrass [4, 11]: 0
Plant response rating, B. signalgrass [4, 10]: 0

CC(C)N(C(=O)n1oc(=O)n(-c2cccnc2)c1=O)c1ccc(F)cc1 [Compound 234]
Crabgrass plant response rating [1, 6]: 0
Crabgrass plant response rating [1, 7]: 0
Plant response rating, Crabgrass [1, 8]: 0
Crabgrass plant response rating [1, 12]: 0
Crabgrass plant response rating [1, 13]: 0
Crabgrass plant response rating [1, 14]: 0
Plant response rating (0 to 10; 0 is no effect, 10 is complete control), Crabgrass ([1]; Rate 250 g/ha, Postemergence): 0
Crabgrass plant response rating [1, 10]: 0
Corn plant response rating [2, 6]: 0
Corn plant response rating [2, 7]: 0
Plant response rating, Corn [2, 8]: 0
Corn plant response rating [2, 12]: 0
Corn plant response rating [2, 13]: 0
Corn plant response rating [2, 14]: 0
Plant response rating (0 to 10; 0 is no effect, 10 is complete control), Corn ([2]; Rate 250 g/ha, Postemergence): 0
Corn plant response rating [2, 10]: 0
Cocklebur plant response rating [3, 6]: 0
Cocklebur plant response rating [3, 7]: 0
Plant response rating, Cocklebur [3, 8]: 0
Cocklebur plant response rating [3, 12]: 0
Cocklebur plant response rating [3, 13]: 0
Cocklebur plant response rating [3, 14]: 0
Plant response rating (0 to 10; 0 is no effect, 10 is complete control), Cocklebur ([3]; Rate 250 g/ha, Postemergence): 0
Cocklebur plant response rating [3, 10]: 3
B. signalgrass plant response rating [4, 6]: 0
B. signalgrass plant response rating ([4]; Preemergence, Rate 250 g/ha, scale 0 to 10, 0 is no effect, 10 is complete control): 0
Plant response rating, B. signalgrass [4, 8]: 0
B. signalgrass plant response rating [4, 12]: 0
B. signalgrass plant response rating ([4]; Rate 125 g/ha, Postemergence, scale 0 (no effect) to 10 (complete control)): 0
B. signalgrass plant response rating [4, 14]: 0
Plant response rating (0 to 10; 0 is no effect, 10 is complete control), B. signalgrass ([4]; Rate 250 g/ha, Postemergence): 0
B. signalgrass plant response rating [4, 10]: 0

CCN(CC)C(=O)n1oc(=O)n(-c2cc(Cl)cc(Cl)c2)c1=O [Compound 11]
Crabgrass plant response rating [1, 15]: 0
Crabgrass plant response rating [1, 16]: 0
Plant response rating, Crabgrass [1, 17]: 0
Plant response rating, Crabgrass [1, 18]: 0
Plant response rating, Crabgrass [1, 7]: 0
Crabgrass plant response rating [1, 19]: 8
Crabgrass plant response rating [1, 20]: 0
Crabgrass plant response rating [1, 21]: 0
Corn plant response rating [2, 15]: 0
Corn plant response rating [2, 16]: 0
Plant response rating, Corn [2, 17]: 0
Plant response rating, Corn [2, 18]: 0
Plant response rating, Corn [2, 7]: 0
Corn plant response rating [2, 19]: 0
Corn plant response rating [2, 20]: 0
Corn plant response rating [2, 21]: 0
Cocklebur plant response rating [3, 15]: 0
Cocklebur plant response rating [3, 16]: 0
Plant response rating, Cocklebur [3, 17]: 0
Plant response rating, Cocklebur [3, 18]: 0
Plant response rating, Cocklebur [3, 7]: 0
Cocklebur plant response rating [3, 19]: 0
Cocklebur plant response rating [3, 20]: 0
Cocklebur plant response rating [3, 21]: 0
B. signalgrass plant response rating [4, 15]: 0
B. signalgrass plant response rating [4, 16]: 0
Plant response rating, B. signalgrass [4, 17]: 0
Plant response rating, B. signalgrass [4, 18]: 0
Plant response rating, B. signalgrass [4, 7]: 0
B. signalgrass plant response rating [4, 19]: 0
B. signalgrass plant response rating [4, 20]: 0
B. signalgrass plant response rating [4, 21]: 0

CC(C)N(C(=O)n1oc(=O)n(Cc2nnsc2Cl)c1=O)c1ccccc1 [Compound 321]
Crabgrass plant response rating [1, 6]: 0
Crabgrass plant response rating (0 to 10 scale) ([1]; Preemergence, Rate 125 g/ha): 2
Crabgrass plant response rating [1, 7]: 3
Crabgrass plant response rating [1, 8]: 4
Crabgrass plant response rating [1, 9]: 0
Crabgrass plant response rating [1, 22]: 0
Plant response rating, Crabgrass [1, 11]: 2
Corn plant response rating [2, 6]: 0
Corn plant response rating (0 to 10 scale) ([2]; Preemergence, Rate 125 g/ha): 0
Corn plant response rating [2, 7]: 0
Corn plant response rating [2, 8]: 0
Corn plant response rating [2, 9]: 0
Corn plant response rating [2, 22]: 0
Plant response rating, Corn [2, 11]: 0
Corn plant response rating [2, 10]: 0
Cocklebur plant response rating [3, 6]: 0
Cocklebur plant response rating (0 to 10 scale) ([3]; Preemergence, Rate 125 g/ha): 0
Cocklebur plant response rating [3, 7]: 0
Cocklebur plant response rating [3, 8]: 0
Cocklebur plant response rating [3, 9]: 0
Cocklebur plant response rating [3, 22]: 0
Plant response rating, Cocklebur [3, 11]: 0
Cocklebur plant response rating [3, 10]: 0
B. signalgrass plant response rating [4, 6]: 0
B. signalgrass plant response rating (0 to 10 scale, 0 is no effect, 10 is complete control) ([4]; Preemergence, Rate 125 g/ha): 0
B. signalgrass plant response rating [4, 7]: 3
B. signalgrass plant response rating [4, 8]: 5
B. signalgrass plant response rating [4, 9]: 0
B. signalgrass plant response rating [4, 22]: 0
Plant response rating, B. signalgrass [4, 11]: 0
B. signalgrass plant response rating [4, 10]: 0
